Data on 31 compounds can be found in patent publication US12297190B2, “Modulators of STING (stimulator of interferon genes)” (PFIZER INC., priority 2019, dated 2025).

In this assay the target is R232-STING (Homo sapiens, UniProt Q86WV6, H232R). As to the kind of experiment: biochemical.
Chain of R232-STING (Q86WV6 155-341 H232R): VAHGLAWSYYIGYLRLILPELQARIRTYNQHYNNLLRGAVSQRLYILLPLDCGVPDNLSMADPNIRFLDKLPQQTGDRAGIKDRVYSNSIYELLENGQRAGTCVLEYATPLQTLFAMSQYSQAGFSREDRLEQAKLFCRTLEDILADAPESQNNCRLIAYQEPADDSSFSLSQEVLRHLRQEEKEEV
Take `CCn1nc(C)cc1-c1nnc(-c2cc(C(N)=O)cc3c2cnn3CCN(C)CCOC)[nH]1` [ZZZ030, 4-[5-(1-ethyl-3-methyl-1H-pyrazol-5-yl)-4H-1,2,4-triazol-3-yl]-1-{2-[(2-methoxyethyl)(methyl)amino]ethyl}-1H-indazole-6-carboxamide]: the affinity corresponds to a Ki of 0.861 µM.
Turning to `CCn1nc(C)cc1-c1nnc(-c2cc(C(N)=O)cc3c2cnn3C[C@H]2CCCCN2C)[nH]1` [ZZZ032, 4-[5-(1-ethyl-3-methyl-1H-pyrazol-5-yl)-4H-1,2,4-triazol-3-yl]-1-{[(2R)-1-methylpiperidin-2-yl]methyl}-1H-indazole-6-carboxamide], the inhibition constant Ki (usually the equilibrium dissociation constant of an inhibitor or competing ligand from its target) was 0.967 µM.
For `CCn1nc(C)cc1-c1nnc(-c2cc(C(N)=O)cc3c2cnn3CC2CC3(CCN(C)CC3)C2)[nH]1` [ZZZ033, 4-[5-(1-ethyl-3-methyl-1H-pyrazol-5-yl)-4H-1,2,4-triazol-3-yl]-1-[(7-methyl-7-azaspiro[3.5]nonan-2-yl)methyl]-1H-indazole-6-carboxamide], the affinity, expressed as Ki, was 0.572 µM.
`CCn1nc(C)cc1-c1nnc(-c2cc(C(N)=O)cc3c2cnn3CCCCN(C)C)[nH]1` [ZZZ034, 1-[4-(dimethylamino)butyl]-4-[5-(1-ethyl-3-methyl-1H-pyrazol-5-yl)-4H-1,2,4-triazol-3-yl]-1H-indazole-6-carboxamide] returned an inhibitory constant (Ki) of over 0.99 µM.
In the case of `CCn1nc(C)cc1-c1nnc(-c2cc(C(N)=O)cc3c2cnn3CC[C@@H]2CCN(C)C2)[nH]1` [ZZZ035, 4-[5-(1-ethyl-3-methyl-1H-pyrazol-5-yl)-4H-1,2,4-triazol-3-yl]-1-{2-[(3S)-1-methylpyrrolidin-3-yl]ethyl}-1H-indazole-6-carboxamide] it was over 0.99 µM; in that of `CCn1nc(C)cc1-c1nnc(-c2cc(C(N)=O)cc3c2cnn3CCN2CC(C)C2)[nH]1` [ZZZ036, 4-[5-(1-ethyl-3-methyl-1H-pyrazol-5-yl)-4H-1,2,4-triazol-3-yl]-1-[2-(3-methylazetidin-1-yl)ethyl]-1H-indazole-6-carboxamide], over 0.99 µM; in that of `CCn1nc(C)cc1-c1nnc(-c2cc(C(N)=O)cc3c2cnn3CCCCN2CCOCC2)[nH]1` [ZZZ037, 4-[5-(1-ethyl-3-methyl-1H-pyrazol-5-yl)-4H-1,2,4-triazol-3-yl]-1-[4-(morpholin-4-yl)butyl]-1H-indazole-6-carboxamide], 0.727 µM.
In turn, `CCn1nc(C)cc1-c1nnc(-c2cc(C(N)=O)cc3c2cnn3CCN2CCC2)[nH]1` [ZZZ039, 1-[2-(azetidin-1-yl)ethyl]-4-[5-(1-ethyl-3-methyl-1H-pyrazol-5-yl)-4H-1,2,4-triazol-3-yl]-1H-indazole-6-carboxamide] came in with a Ki of over 0.99 µM.
Compound `CCn1nc(C)cc1-c1nnc(-c2cc(C(N)=O)cc3c2cnn3C(C)CN2CCCC2)[nH]1` (stereo not shown) [ZZZ040, 4-[5-(1-ethyl-3-methyl-1H-pyrazol-5-yl)-4H-1,2,4-triazol-3-yl]-1-[1-(pyrrolidin-1-yl)propan-2-yl]-1H-indazole-6-carboxamide] displayed an inhibitory constant (Ki) of over 0.99 µM.
Regarding `CCn1nc(C)cc1-c1nnc(-c2cc(C(N)=O)cc3c2cnn3CCCCN2CCCCC2)[nH]1` [ZZZ043, 4-[5-(1-ethyl-3-methyl-1H-pyrazol-5-yl)-4H-1,2,4-triazol-3-yl]-1-[4-(piperidin-1-yl)butyl]-1H-indazole-6-carboxamide], the Ki was over 0.99 µM.
Compound `CCn1nc(C)cc1-c1nnc(-c2c(C(F)(F)F)c(C(N)=O)cc3c2cnn3C)[nH]1` [ZZZ044, 4-[5-(1-ethyl-3-methyl-1H-pyrazol-5-yl)-4H-1,2,4-triazol-3-yl]-1-methyl-5-(trifluoromethyl)-1H-indazole-6-carboxamide] returned an inhibition constant (Ki) of over 0.9 µM.
`CCn1nc(C)c(F)c1-c1nc(CN)c(-c2nc(C(N)=O)cc3c2cnn3C)o1` [ZZZ045, 4-[4-(aminomethyl)-2-(1-ethyl-4-fluoro-3-methyl-1H-pyrazol-5-yl)-1,3-oxazol-5-yl]-1-methyl-1H-pyrazolo[4,3-c]pyridine-6-carboxamide]: the Ki was over 0.9 µM.
The same measure for `CCn1nc(CO)cc1-c1n[nH]c(-c2nc(C(N)=O)cc3[nH]ncc23)n1` [ZZZ046, 4-{3-[1-ethyl-3-(hydroxymethyl)-1H-pyrazol-5-yl]-1H-1,2,4-triazol-5-yl}-1H-pyrazolo[4,3-c]pyridine-6-carboxamide]: over 0.99 µM; for `CCn1nc(C)cc1-c1nc(-c2nc(C(N)=O)cc3c2cnn3C)n(CCN)n1` [ZZZ047, 4-[1-(2-aminoethyl)-3-(1-ethyl-3-methyl-1H-pyrazol-5-yl)-1H-1,2,4-triazol-5-yl]-1-methyl-1H-pyrazolo[4,3-c]pyridine-6-carboxamide]: over 0.09 µM.
The same measure for `CCn1nc(C)c(C(F)(F)F)c1-c1nnc(-c2cc(C(N)=O)cc3c2cnn3C)[nH]1` [ZZZ048, 4-{5-[1-ethyl-3-methyl-4-(trifluoromethyl)-1H-pyrazol-5-yl]-4H-1,2,4-triazol-3-yl}-1-methyl-1H-indazole-6-carboxamide]: 0.912 µM; for `Cc1nn(CC(CO)CO)c(-c2n[nH]c(-c3cc(C(N)=O)cc4c3cnn4C)n2)c1F` [ZZZ049, 4-(3-{4-fluoro-1-[3-hydroxy-2-(hydroxymethyl)propyl]-3-methyl-1H-pyrazol-5-yl}-1H-1,2,4-triazol-5-yl)-1-methyl-1H-indazole-6-carboxamide]: over 0.9 µM.
In turn, `CCn1nc(CO)cc1-c1nnc(-c2cc(C(N)=O)cc3c2cnn3C)[nH]1` [ZZZ050, 4-{5-[1-ethyl-3-(hydroxymethyl)-1H-pyrazol-5-yl]-4H-1,2,4-triazol-3-yl}-1-methyl-1H-indazole-6-carboxamide] returned an inhibitory constant (Ki) of over 0.99 µM.
In turn, `CCn1nc(C)cc1-c1nc(CN)c(-c2nc(C(N)=O)cc3c2cnn3C)o1` [ZZZ051, 4-[4-(aminomethyl)-2-(1-ethyl-3-methyl-1H-pyrazol-5-yl)-1,3-oxazol-5-yl]-1-methyl-1H-pyrazolo[4,3-c] pyridine-6-carboxamide] came in with an inhibition constant (Ki) of 0.191 µM.
Compound `CCn1nc(CO)c(F)c1-c1nc(-c2nc(C(N)=O)cc3c2cnn3C)n(C)n1` [ZZZ052, 4-{3-[1-ethyl-4-fluoro-3-(hydroxymethyl)-1H-pyrazol-5-yl]-1-methyl-1H-1,2,4-triazol-5-yl}-1-methyl-1H-pyrazolo[4,3-c]pyridine-6-carboxamide] yielded an inhibition constant Ki of over 0.99 µM.
`CCn1nc(C)c(I)c1-c1nnc(-c2cc(C(N)=O)cc3c2cnn3C)[nH]1` [ZZZ053, 4-[5-(1-ethyl-4-iodo-3-methyl-1H-pyrazol-5-yl)-4H-1,2,4-triazol-3-yl]-1-methyl-1H-indazole-6-carboxamide]: the inhibitory constant (Ki) is over 0.99 µM.
On to `CCn1nc(C)c(F)c1-c1n[nH]c(-c2cc(C(N)=O)cc3c2cnn3CCCNC)n1` [ZZZ054, 4-[3-(1-ethyl-4-fluoro-3-methyl-1H-pyrazol-5-yl)-1H-1,2,4-triazol-5-yl]-1-[3-(methylamino)propyl]-1H-indazole-6-carboxamide], for which the inhibition constant Ki is over 1.89 µM.
Take `CCc1nc(C)[nH]c1-c1n[nH]c(-c2cc(C(N)=O)cc3c2cnn3C)n1` [ZZZ055, 4-[3-(4-ethyl-2-methyl-1H-imidazol-5-yl)-1H-1,2,4-triazol-5-yl]-1-methyl-1H-indazole-6-carboxamide]: the inhibition constant Ki was over 0.99 µM.
As to `CCc1nc(C)n(C)c1-c1n[nH]c(-c2cc(C(N)=O)cc3c2cnn3C)n1` [ZZZ056, 4-[3-(4-ethyl-1,2-dimethyl-1H-imidazol-5-yl)-1H-1,2,4-triazol-5-yl]-1-methyl-1H-indazole-6-carboxamide], the inhibition constant (Ki) is over 0.99 µM.
For the compound `CCn1nc(C)c(F)c1-c1nnc(-c2cc(C(N)=O)cn3c(C(=O)O)ncc23)[nH]1` [ZZZ057, 6-carbamoyl-8-[5-(1-ethyl-4-fluoro-3-methyl-1H-pyrazol-5-yl)-4H-1,2,4-triazol-3-yl]imidazo[1,5-a]pyridine-3-carboxylic acid], the Ki is over 0.99 µM.
Compound `CCn1nc(C)cc1-c1nnc(-c2cc(C(N)=O)cc3c2cnn3C[C@H]2[C@@H]3CNC[C@@H]32)[nH]1` [ZZZ058, 1-{[(1R,5S,6r)-3-azabicyclo[3.1.0]hexan-6-yl]methyl}-4-[5-(1-ethyl-3-methyl-1H-pyrazol-5-yl)-4H-1,2,4-triazol-3-yl]-1H-indazole-6-carboxamide] yielded a Ki of over 0.99 µM.
Compound `CCn1nc(C)cc1-c1nnc(-c2cc(C(N)=O)cc3c2cnn3CC[C@@H]2COCCN2)[nH]1` [ZZZ059, 4-[5-(1-ethyl-3-methyl-1H-pyrazol-5-yl)-4H-1,2,4-triazol-3-yl]-1-{2-[(3R)-morpholin-3-yl]ethyl}-1H-indazole-6-carboxamide] yielded a Ki of 0.948 µM.
The same measure for `CCn1nc(C)cc1-c1nnc(-c2cc(C(N)=O)cc3c2cnn3CC23CCCC2CNC3)[nH]1` (stereo not shown) [ZZZ060, 4-[5-(1-ethyl-3-methyl-1H-pyrazol-5-yl)-4H-1,2,4-triazol-3-yl]-1-[(hexahydrocyclopenta[c]pyrrol-3a(1H)-yl)methyl]-1H-indazole-6-carboxamide]: 0.541 µM.
The same measure for `CCn1nc(C)cc1-c1nnc(-c2cc(C(N)=O)cc3c2cnn3[C@H]2CCCNC2)[nH]1` [ZZZ061, 4-[5-(1-ethyl-3-methyl-1H-pyrazol-5-yl)-4H-1,2,4-triazol-3-yl]-1-[(3S)-piperidin-3-yl]-1H-indazole-6-carboxamide]: 0.882 µM; for `CCn1ccc2c(-c3nc(-c4cc(C)nn4CCC(=O)O)n[nH]3)nc(C(N)=O)cc21` [ZZZ062, 3-{5-[5-(6-carbamoyl-1-ethyl-1H-pyrrolo[3,2-c]pyridin-4-yl)-1H-1,2,4-triazol-3-yl]-3-methyl-1H-pyrazol-1-yl}propanoic acid]: 0.543 µM; for `CCn1nc(C)cc1-c1nnc(-c2cc(C(N)=O)cc3c2cnn3C[C@@H]2CNCCO2)[nH]1` [ZZZ064, 4-[5-(1-ethyl-3-methyl-1H-pyrazol-5-yl)-4H-1,2,4-triazol-3-yl]-1-{[(2S)-morpholin-2-yl]methyl}-1H-indazole-6-carboxamide]: over 0.99 µM.
On to `CCn1nc(C)cc1-c1nnc(-c2cc(C(N)=O)cc3c2cnn3C[C@H]2C[C@H]3CC[C@@H](C2)N3)[nH]1` [ZZZ065, 1-{[(1R,3r,5S)-8-azabicyclo[3.2.1]octan-3-yl]methyl}-4-[5-(1-ethyl-3-methyl-1H-pyrazol-5-yl)-4H-1,2,4-triazol-3-yl]-1H-indazole-6-carboxamide], for which the Ki worked out at 0.964 µM.
